In brackets after ≈: the same amount, converted by molar mass.
Assays:
[1] = Solubility of the compound in organis solvent; format: physicochemical
[2] = Aqueous solubility of the compound; format: physicochemical; conditions: water
[3] = target: T1, Putative protoporphyrinogen IX oxidase (Cucumis sativus) (UniProt C6L817); experiment: Inhibition of protoporphyrin oxidase in Cucumis sativus (cucumber) cotyledon disc assessed as increase in extraplastidic protoporphyrin 9 accumulation at 10 uM incubated in dim light for 2 hr by HPLC analysis relative to control
T1 sequence (whole entry): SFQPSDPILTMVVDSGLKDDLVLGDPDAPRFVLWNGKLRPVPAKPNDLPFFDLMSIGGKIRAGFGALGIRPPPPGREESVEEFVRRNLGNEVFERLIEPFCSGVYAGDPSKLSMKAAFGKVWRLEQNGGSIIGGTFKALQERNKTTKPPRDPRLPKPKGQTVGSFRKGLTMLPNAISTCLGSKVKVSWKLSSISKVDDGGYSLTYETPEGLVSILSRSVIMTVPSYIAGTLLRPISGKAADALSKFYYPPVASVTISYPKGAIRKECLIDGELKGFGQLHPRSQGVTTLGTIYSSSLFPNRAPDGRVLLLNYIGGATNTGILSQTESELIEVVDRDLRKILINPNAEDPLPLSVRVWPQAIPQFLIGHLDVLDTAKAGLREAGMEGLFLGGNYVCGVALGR

[4] = target: T1, Putative protoporphyrinogen IX oxidase (Cucumis sativus); experiment: Inhibition of protoporphyrin oxidase in Cucumis sativus (cucumber) cotyledon disc assessed as increase in extraplastidic protoporphyrin 9 accumulation at 100 uM incubated in dim light for 2 hr by HPLC analysis relative to control

Row | Compound | solubility [1] [µg/mL] | solubility [2] [µg/mL] | fold change (FC) [3] | fold change (FC) [4]
1 | C#CCOc1cc(-n2nc(C(C)(C)C)oc2=O)c(Cl)cc1Cl [OXADIARGYL] | > 250000 | 0.37 (≈ 1.08 µM) | – | –
2 | COC(=O)c1cc(Oc2ccc(C(F)(F)F)cc2Cl)ccc1[N+](=O)[O-] | – | – | 369 | 390
3 | CC(C)Oc1cc(-n2nc(C(C)(C)C)oc2=O)c(Cl)cc1Cl [OXADIAZON] | > 250000 | 0.7 (≈ 2.03 µM) | – | –

Source: ChEMBL document CHEMBL3046079, “Synthesis, herbicidal activity, and mode of action of IR 5790” (J Agric Food Chem, 2001)
